Measurements taken from patent US8512725B2, “Method, material and system for controlled release of anti-microbial agents” (Bacstop Corporation Pty Ltd, priority 2004, dated 2013).

What was measured:
Assay in all cases: Survival of bacteria inoculated into silver-treated water aliquots
Assay type in all cases: cell-based
E. coli ATCC 11775 = details: initial concentration 5.81
Description: (§1) Several bacterial organisms, E. coli ATCC 11775, Pseudomonas aeruginosa ATCC 27853, and Bacillus cereus NCTC 10320 were inoculated into equal volumes of the abovementioned aliquots to achieve an initial bacterial concentration of approximately 10^6 cells per millilitre. After three predetermined time periods of 5 minutes, 1 hour, and 8 days, aliquots of each solution were withdrawn, and enumeration of surviving organisms was performed. All tests were conducted in duplicate.
(§2) All results are expressed in log10 units.

[1] = tested on: Pseudomonas aeruginosa ATCC 27853; details: initial concentration 5.62
Description: as §1, §2

[2] = tested on: Bacillus cereus NCTC 10320; details: initial concentration 5.82
Description: as §1, §2

[3] = sodium hypochlorite 0.5 ppm, period 5 min
[4] = sodium hypochlorite 0.5 ppm, period 1 hour
[5] = sodium hypochlorite 0.5 ppm, period 8 days

[Na+].[O-]Cl [NaOCl, sodium hypochlorite, reference compound]
surviving organisms, E. coli (E. coli ATCC 11775; [3]): 5.82 log10 units
surviving organisms, E. coli (E. coli ATCC 11775; [4]): 5.81 log10 units
surviving organisms, E. coli (E. coli ATCC 11775; [5]): 4.48 log10 units
surviving organisms, Pseudomonas aeruginosa [1, 3]: 5.62 log10 units
surviving organisms, Pseudomonas aeruginosa [1, 4]: 5.63 log10 units
surviving organisms, Pseudomonas aeruginosa [1, 5]: 4.98 log10 units
surviving organisms, Bacillus cerus [2, 3]: 4.61 log10 units
surviving organisms, Bacillus cerus [2, 4]: 4.61 log10 units
surviving organisms, Bacillus cerus [2, 5]: 4.90 log10 units

[Ag] [Silver, silver]
surviving organisms, E. coli (E. coli ATCC 11775; silver 50 ppb, period 5 min): 5.81 log10 units
surviving organisms, E. coli (E. coli ATCC 11775; silver 50 ppb, period 1 hour): 4.79 log10 units
surviving organisms, E. coli (E. coli ATCC 11775; silver 50 ppb, period 8 days): 0 log10 units
surviving organisms, E. coli (E. coli ATCC 11775; silver 111 ppb, period 5 min): 5.77 log10 units
surviving organisms, E. coli (E. coli ATCC 11775; silver 111 ppb, period 1 hour): 4.48 log10 units
surviving organisms, E. coli (E. coli ATCC 11775; silver 111 ppb, period 8 days): 0 log10 units
surviving organisms, E. coli (E. coli ATCC 11775; silver 190 ppb, period 5 min): 5.76 log10 units
surviving organisms, E. coli (E. coli ATCC 11775; silver 190 ppb, period 1 hour): 3.74 log10 units
surviving organisms, E. coli (E. coli ATCC 11775; silver 190 ppb, period 8 days): 0 log10 units
surviving organisms, E. coli (E. coli ATCC 11775; silver 373 ppb, period 5 min): 5.79 log10 units
surviving organisms, E. coli (E. coli ATCC 11775; silver 373 ppb, period 1 hour): 3.88 log10 units
surviving organisms, E. coli (E. coli ATCC 11775; silver 373 ppb, period 8 days): 0 log10 units
surviving organisms, Pseudomonas aeruginosa ([1]; silver 50 ppb, period 5 min): 5.61 log10 units
surviving organisms, Pseudomonas aeruginosa ([1]; silver 50 ppb, period 1 hour): 5.27 log10 units
surviving organisms, Pseudomonas aeruginosa ([1]; silver 50 ppb, period 8 days): 3.23 log10 units
surviving organisms, Pseudomonas aeruginosa ([1]; silver 111 ppb, period 5 min): 5.61 log10 units
surviving organisms, Pseudomonas aeruginosa ([1]; silver 111 ppb, period 1 hour): 4.98 log10 units
surviving organisms, Pseudomonas aeruginosa ([1]; silver 111 ppb, period 8 days): 2.59 log10 units
surviving organisms, Pseudomonas aeruginosa ([1]; silver 190 ppb, period 5 min): 5.61 log10 units
surviving organisms, Pseudomonas aeruginosa ([1]; silver 190 ppb, period 1 hour): 5.00 log10 units
surviving organisms, Pseudomonas aeruginosa ([1]; silver 190 ppb, period 8 days): 1.10 log10 units
surviving organisms, Pseudomonas aeruginosa ([1]; silver 373 ppb, period 5 min): 5.62 log10 units
surviving organisms, Pseudomonas aeruginosa ([1]; silver 373 ppb, period 1 hour): 5.10 log10 units
surviving organisms, Pseudomonas aeruginosa ([1]; silver 373 ppb, period 8 days): 2.00 log10 units
surviving organisms, Bacillus cerus ([2]; silver 50 ppb, period 5 min): 4.60 log10 units
surviving organisms, Bacillus cerus ([2]; silver 50 ppb, period 1 hour): 2.30 log10 units
surviving organisms, Bacillus cerus ([2]; silver 50 ppb, period 8 days): 0 log10 units
surviving organisms, Bacillus cerus ([2]; silver 111 ppb, period 5 min): 4.20 log10 units
surviving organisms, Bacillus cerus ([2]; silver 111 ppb, period 1 hour): 2.00 log10 units
surviving organisms, Bacillus cerus ([2]; silver 111 ppb, period 8 days): 0 log10 units
surviving organisms, Bacillus cerus ([2]; silver 190 ppb, period 5 min): 4.28 log10 units
surviving organisms, Bacillus cerus ([2]; silver 190 ppb, period 1 hour): 1.93 log10 units
surviving organisms, Bacillus cerus ([2]; silver 190 ppb, period 8 days): 0 log10 units
surviving organisms, Bacillus cerus ([2]; silver 373 ppb, period 5 min): 4.19 log10 units
surviving organisms, Bacillus cerus ([2]; silver 373 ppb, period 1 hour): 0 log10 units
surviving organisms, Bacillus cerus ([2]; silver 373 ppb, period 8 days): 0 log10 units
